From article PMC4472506 (Nature chemical biology, 2015)
Each block holds one molecule with its values, some of them ahead of it.

Key:
Aqueous solubility = format: physicochemical
JAK3 = biological target: T1, JAK3 (Homo sapiens, UniProt P52333); assay: Enzymatic IC50 assay; format: biochemical
T1 sequence (P52333 1-1124): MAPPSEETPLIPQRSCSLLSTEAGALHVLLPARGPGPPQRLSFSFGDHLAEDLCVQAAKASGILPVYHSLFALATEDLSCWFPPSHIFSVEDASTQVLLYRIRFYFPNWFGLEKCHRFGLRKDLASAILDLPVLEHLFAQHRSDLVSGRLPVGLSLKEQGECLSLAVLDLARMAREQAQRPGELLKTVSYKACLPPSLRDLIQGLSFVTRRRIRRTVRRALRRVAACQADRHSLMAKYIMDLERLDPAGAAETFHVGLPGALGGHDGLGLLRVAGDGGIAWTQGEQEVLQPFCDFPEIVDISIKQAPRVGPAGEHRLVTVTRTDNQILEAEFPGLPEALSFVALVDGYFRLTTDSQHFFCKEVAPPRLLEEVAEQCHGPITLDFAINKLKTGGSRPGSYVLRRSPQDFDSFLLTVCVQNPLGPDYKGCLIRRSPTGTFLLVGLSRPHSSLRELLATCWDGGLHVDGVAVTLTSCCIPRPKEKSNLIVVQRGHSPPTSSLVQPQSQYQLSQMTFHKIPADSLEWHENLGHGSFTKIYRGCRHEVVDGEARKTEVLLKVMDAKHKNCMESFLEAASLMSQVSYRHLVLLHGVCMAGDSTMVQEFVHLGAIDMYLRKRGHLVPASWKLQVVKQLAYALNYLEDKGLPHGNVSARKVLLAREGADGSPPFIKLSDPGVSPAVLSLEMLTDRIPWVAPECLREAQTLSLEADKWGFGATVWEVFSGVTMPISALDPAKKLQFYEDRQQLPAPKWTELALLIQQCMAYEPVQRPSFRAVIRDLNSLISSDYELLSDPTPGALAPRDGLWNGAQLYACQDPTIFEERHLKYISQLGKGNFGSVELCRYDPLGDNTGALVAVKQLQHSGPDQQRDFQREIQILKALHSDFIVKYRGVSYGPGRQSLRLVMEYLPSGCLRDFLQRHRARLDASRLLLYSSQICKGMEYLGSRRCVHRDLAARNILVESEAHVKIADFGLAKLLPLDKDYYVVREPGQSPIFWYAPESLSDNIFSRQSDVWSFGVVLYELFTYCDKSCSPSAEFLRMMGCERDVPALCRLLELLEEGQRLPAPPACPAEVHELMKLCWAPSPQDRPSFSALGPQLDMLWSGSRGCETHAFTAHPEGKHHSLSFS

BTK [1] = biological target: T2, BTK (Homo sapiens, UniProt Q06187); assay: Cellular durability
Oral bioavailability = details: in vivo
ITK = biological target: T3, ITK (Homo sapiens, UniProt Q08881); assay: Enzymatic IC50 assay; format: biochemical
T3 sequence (Q08881 1-620): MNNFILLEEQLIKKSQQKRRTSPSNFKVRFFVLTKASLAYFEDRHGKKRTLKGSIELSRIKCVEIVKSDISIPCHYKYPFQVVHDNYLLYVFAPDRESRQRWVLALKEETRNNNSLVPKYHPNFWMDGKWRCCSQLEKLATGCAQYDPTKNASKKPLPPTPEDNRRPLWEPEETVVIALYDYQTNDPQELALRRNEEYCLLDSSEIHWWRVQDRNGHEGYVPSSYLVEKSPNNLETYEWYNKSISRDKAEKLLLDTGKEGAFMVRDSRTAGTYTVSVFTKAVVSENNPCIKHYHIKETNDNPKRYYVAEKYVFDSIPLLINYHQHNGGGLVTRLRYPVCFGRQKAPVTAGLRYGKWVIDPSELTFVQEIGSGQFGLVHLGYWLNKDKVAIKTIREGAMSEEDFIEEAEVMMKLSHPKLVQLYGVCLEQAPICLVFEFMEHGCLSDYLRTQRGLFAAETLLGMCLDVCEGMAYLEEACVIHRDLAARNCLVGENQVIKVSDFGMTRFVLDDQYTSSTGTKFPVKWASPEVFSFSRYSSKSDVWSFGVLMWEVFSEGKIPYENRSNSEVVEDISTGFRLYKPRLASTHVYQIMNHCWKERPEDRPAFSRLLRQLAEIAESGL

EGFR = EGFR (Homo sapiens, UniProt P00533); assay: Enzymatic IC50 assay; format: biochemical
BTK [2] = biological target: T2, BTK; assay: Dissociation of compound from BTK after guanidine-mediated unfolding; details: relative to samples without BTK
BTK [3] = biological target: T2, BTK; assay: BTK cell occupancy using Alphascreen; format: cell-based
BTK [4] = biological target: T2, BTK; assay: Biochemical residence time using fluorescence competition; format: binding; details: for residence time: read-out: BTK residence time τ

T2 sequence (Q06187 whole entry): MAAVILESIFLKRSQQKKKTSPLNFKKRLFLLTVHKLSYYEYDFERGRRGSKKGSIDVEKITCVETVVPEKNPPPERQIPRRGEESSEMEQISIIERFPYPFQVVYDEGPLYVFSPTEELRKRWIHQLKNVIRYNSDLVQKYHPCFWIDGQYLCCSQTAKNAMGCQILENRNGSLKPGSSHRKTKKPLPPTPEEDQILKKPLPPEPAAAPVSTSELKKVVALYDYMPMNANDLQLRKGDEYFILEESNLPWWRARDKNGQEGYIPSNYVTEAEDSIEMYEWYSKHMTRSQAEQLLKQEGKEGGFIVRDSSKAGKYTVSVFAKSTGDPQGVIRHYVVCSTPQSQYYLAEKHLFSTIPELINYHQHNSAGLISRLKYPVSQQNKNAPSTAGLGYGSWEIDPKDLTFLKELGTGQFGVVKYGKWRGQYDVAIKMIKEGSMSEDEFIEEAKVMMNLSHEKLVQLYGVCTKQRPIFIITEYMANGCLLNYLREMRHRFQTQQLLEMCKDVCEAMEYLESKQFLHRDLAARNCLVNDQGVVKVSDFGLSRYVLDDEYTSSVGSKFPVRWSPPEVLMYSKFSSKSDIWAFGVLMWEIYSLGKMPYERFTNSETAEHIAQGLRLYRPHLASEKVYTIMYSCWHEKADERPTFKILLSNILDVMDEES
EGFR, sequence (P00533 25-1210, species assumed): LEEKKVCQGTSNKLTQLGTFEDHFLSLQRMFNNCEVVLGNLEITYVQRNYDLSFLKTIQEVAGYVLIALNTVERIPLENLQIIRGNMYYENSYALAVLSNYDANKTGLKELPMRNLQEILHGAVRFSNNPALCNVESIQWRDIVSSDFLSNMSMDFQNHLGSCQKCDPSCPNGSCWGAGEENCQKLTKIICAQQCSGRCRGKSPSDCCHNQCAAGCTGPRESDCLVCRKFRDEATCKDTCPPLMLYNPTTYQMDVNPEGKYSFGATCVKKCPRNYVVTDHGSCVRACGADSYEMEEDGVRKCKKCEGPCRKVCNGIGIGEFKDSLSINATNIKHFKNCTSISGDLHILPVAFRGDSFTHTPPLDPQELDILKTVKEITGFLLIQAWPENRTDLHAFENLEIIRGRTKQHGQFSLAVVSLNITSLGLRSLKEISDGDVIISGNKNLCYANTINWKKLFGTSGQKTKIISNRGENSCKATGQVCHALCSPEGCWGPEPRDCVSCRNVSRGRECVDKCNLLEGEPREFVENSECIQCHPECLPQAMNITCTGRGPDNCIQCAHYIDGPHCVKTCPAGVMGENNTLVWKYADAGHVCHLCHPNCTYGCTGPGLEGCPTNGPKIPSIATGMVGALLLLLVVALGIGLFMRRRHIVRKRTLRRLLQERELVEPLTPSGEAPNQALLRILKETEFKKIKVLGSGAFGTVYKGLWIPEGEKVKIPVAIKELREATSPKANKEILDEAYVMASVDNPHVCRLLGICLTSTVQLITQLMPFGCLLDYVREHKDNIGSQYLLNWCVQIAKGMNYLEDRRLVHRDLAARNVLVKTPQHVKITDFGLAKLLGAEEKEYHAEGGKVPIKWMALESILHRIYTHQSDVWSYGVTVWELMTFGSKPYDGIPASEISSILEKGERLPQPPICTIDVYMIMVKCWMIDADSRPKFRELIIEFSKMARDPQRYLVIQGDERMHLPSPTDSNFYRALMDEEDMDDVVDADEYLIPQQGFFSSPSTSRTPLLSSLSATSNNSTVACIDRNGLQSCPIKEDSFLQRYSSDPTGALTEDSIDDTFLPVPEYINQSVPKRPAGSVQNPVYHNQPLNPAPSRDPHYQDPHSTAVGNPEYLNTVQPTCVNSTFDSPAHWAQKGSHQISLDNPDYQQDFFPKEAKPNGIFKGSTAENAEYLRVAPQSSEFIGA

Solubility (Aqueous solubility): low solubility
Selectivity for BTK over JAK3 (JAK3): > 1,000 fold
receptor occupancy at 1 µM (BTK [1]; Ramos, read-out: BTK occupancy 20 hrs post-washout): 55%
Oral bioavailability (Oral bioavailability): poor oral bioavailability
Selectivity for BTK over ITK (ITK): 60 fold
Selectivity for BTK over EGFR (EGFR): > 1,000 fold
Recovery of compound after guanidine-mediated denaturation of BTK (BTK [2]): 88 ± 10%
SMILES: CC(C)(C)C=C(C#N)C(=O)N1CCC[C@@H](n2nc(-c3ccc(Oc4ccccc4)cc3)c3c(N)ncnc32)C1 [Compound 3, (R)-2-(3-(4-Amino-3-(4-phenoxyphenyl)-1H-pyrazolo[3,4-d]pyrimidin-1-yl)piperidine-1-carbonyl)-4,4-dimethylpent-2-enenitrile]

BTK occupancy 20 hrs post-washout (BTK [1]; Ramos B cells, 1 μM, 1 hr, PP-BODIPY): negligible
SMILES: CC=C(C#N)C(=O)N1CCC[C@@H](n2nc(-c3ccc(Oc4ccccc4)cc3)c3c(N)ncnc32)C1 [Compound 1]

IC50 (BTK [3]): 5 to 27 nM
residence time (BTK [4]): 4980 ± 840 min
SMILES: CC(C)(C=C(C#N)C(=O)N1CCC[C@H]1Cn1nc(-c2ccc(Oc3ccccc3)cc2F)c2c(N)ncnc21)N1CCOCC1 [Compound 8]

IC50 (BTK [3]): 5 to 27 nM
residence time (BTK [4]): > 12000 min
BTK residence time τ (BTK [4]; room temperature): no evident dissociation
SMILES: C=CC(=O)N1CCC[C@@H]1Cn1nc(-c2ccc(Oc3ccccc3)cc2F)c2c(N)ncnc21 [PP-ir]
